pEC50: −log10 of the molar value. Read-outs that look alike come from different tables or passages of the source.

The term CC50 denotes the concentration giving 50% cytotoxicity. A low value points to harm at low concentration. As a reminder, the pEC50 is −log10 of the EC50, conventionally taken in molar units.

Data set [1] has as its target SARS-CoV-2 M^pro (Severe acute respiratory syndrome coronavirus 2, UniProt P0DTD1). As to the kind of experiment: M^pro protease activity FRET assay. The following applies: no value printed (data not shown or figure only). Format: biochemical.
Data set [2] deals with Vero E6 cell. The data set can be described thus: Cell viability CCK8, Vero E6 cells. It is filed as cell-based. The settings on record: 48 hrs. On the procedure: (§1) To test whether GA and AF are toxic to normal cells, Vero E6, RAW264.7, and 16HBE cell lines were tested. Various doses of AURANOFIN or GA gold cluster were added into cell culture media respectively. After 48 hours of incubation, cell viability was checked by CCK8 (Beyotime, China) following the manufacturer’s instruction, all studies were carried out in triplicate. All cell lines were obtained from ATCC with authentication service.

In data set [3] the test system is SD Rat. The settings on record: cited from earlier work.
Data set [4] concerns IL-6, IL-1β, TNF-α expression and NFκB pathway in RAW 264.7 cells. As to the kind of experiment: Western blot of cytokine expression and NFκB pathway, RAW 264.7 cells. The following applies: AF 1.2 µM, GA 40 µM. Format: cell-based. On the procedure:
(§2) RAW 264.7 or 16HBE cells were seeded into 6 well plates at a density of 2 × 10^6cells/well. […] The collected cell lysates were centrifuged at 13000 rpm for 10 min, and the supernatants were stored for the subsequent Western Blot analysis. The protein concentrations of the supernatants were determined using a microplate spectrophotometer (SPECTRAMAX M4 of Molecular Devices, USA) at a wavelength of 595 nm. An equal quantity of proteins (50 µg) was separated by running on 10% SDS-PAGE and the separated proteins were transferred to a polyvinylidene fluoride (PVDF) membrane (0.45 µm, Millipore, USA). […]
Background: Immunoblotting shows a protein as a band on a membrane.

Data set [5] deals with human bronchial epithelial cells (16HBE). As to the kind of experiment: Cell viability CCK8, 16HBE cells. Format: cell-based. The following applies: 16HBE epithelial cell, 48 hrs. On the procedure:
as §1

Data set [6] has as its system BALB/c mice. The following applies: cited from earlier work.
In data set [7] the test system is macrophage RAW264.7 cells. The data set can be described thus: Cell viability CCK8, RAW264.7 cells. It is filed as cell-based. The following applies: 48 hrs. On the procedure: as §1
Data set [8] relates to inflammatory cytokine levels. The settings on record: oral AF 6-9 mg/kg.bw; intraperitoneal GA 5 mg/kg.bw; cited from earlier work.
Data set [9] concerns SARS-CoV-2. As to the kind of experiment: SARS-CoV-2 replication in Vero cells (qRT-PCR). The following applies: read-out: EC50, inhibition of 50% SARS-CoV-2 replication in Vero cells. It is filed as cell-based. On the technique in general: Real-time PCR tracks product formation cycle by cycle.
The test system of data set [10] is IL-6, IL-1β, TNF-α expression and NFκB pathway in 16HBE cells. As to the kind of experiment: Western blot of cytokine expression and NFκB pathway, 16HBE cells. Format: cell-based, human. On the procedure: as §2
Data set [11] deals with SARS-CoV-2. The following applies: Rothan et al, Virology 2020; read-out: EC50, SARS-CoV-2 replication in infected Huh cells; cited from earlier work.
For data set [12], the system named is SARS-CoV-2. The data set can be described thus: GA treatment of COVID-19 golden hamster via intranasal administration. It is filed as in vivo, golden hamster rats. The settings on record: nasal spray 25 mg/kg.bw daily, day 4.

With `OC[C@H]1O[C@H]([S-])[C@H](O)[C@@H](O)[C@@H]1O.[Au+]` [aurothioglucose], the “inhibition / suppression of M^pro protease activity (in words)” value in data set [1] was “able to inhibit”.
Regarding `CC(=O)OC[C@H]1O[C@@H]([S-])[C@H](OC(C)=O)[C@@H](OC(C)=O)[C@@H]1OC(C)=O.CCP(CC)CC.[Au+]` [AF, AURANOFIN], the CC50 in [2] was ~2270 nM; in [5], ~630 nM; in [7], ~2630 nM. The LD50 entry in [3] (SD Rat, AF known value) is given as “LD50, about 25 mg/kg.bw”; in data set [6] (BALB/c Mice, AF known value) it was “LD50, about 33.8 mg/kg.bw”. Besides, the “intraperitoneal LD50” value was “about 25.5 mg/kg” in [3] (rat, known value) and “about 33.8 mg/kg” in [6] (mice, known value). Also, the “phosphorylation of IKK, IκB, and p65 (NFκB activation)” value in data set [4] (inflammatory macrophage cells) is recorded as “inhibit”. For the same molecule, the “IL-6, IL-1β, and TNF-α expression levels” value in data set [4] (macrophage cells, TNFα 50 ng/mL, 24 hrs) was “significantly suppressed”; in data set [10] (human bronchial epithelial cells, TNFα 50 ng/mL, 24 hrs, AF 1.2 µM, GA 40 µM), “significantly suppressed”. For the same molecule, in data set [8], the inflammatory cytokine levels result is “significant suppression”. For the same molecule, the pEC50 in data set [9] (MOI 0.015, 48 h.p.i., qRT-PCR) is ~6.08; in [11] it was ~5.85. In addition, the “phosphorylation level of IKK, IκB, p65 and IL-6, IL-1β, TNF-α expression” value in [10] (bronchial epithelial cells, AF 0.15 µM, GA 20 µM) is given as “significantly inhibited”.
As to `CCC(CC)COC(=O)[C@H](C)N[P@](=O)(OC[C@H]1O[C@@](C#N)(c2ccc3c(N)ncnn23)[C@H](O)[C@@H]1O)Oc1ccccc1`, in data set [12], the “average pathological score of lung (INHAND)” value is given as “approx. 2.7”. In addition, the pEC50 in [9] (Severe acute respiratory syndrome coronavirus 2, Vero, 48 h) was ~6.19.

The values are drawn from patent publication US20230241101A1 (priority 2020, published 2023).
